Measurements as given in article PMC9781827, “Isolation and Identification of Anti-Inflammatory Peptide from Goose Blood Hydrolysate to Ameliorate LPS-Mediated Inflammation and Oxidative Stress in RAW264.7 Macrophages” (Molecules, 2022).

What was measured:
[1] = tested on: NO; experiment: NO level in LPS-mediated RAW264.7 macrophages culture medium (spectrophotometric kit); type: cell-based; conditions: LPS group (CTRL 6.47 ± 1.29), mean ± S.D., n = 3
Description: The culture medium was collected and centrifuged at 3000× g for 10 min. Then, the inflammatory cytokines levels of TNF-α (MB-50051A), IL-1β (MB-50064B) and IL-6 (MB-50054A) in the culture medium were determined with ELISA kits (Jiangsu Enzyme marker Biotechnology Co., Ltd., Yancheng, China). […] (7) Add 50 μL of stop solution to each well, and measure its absorbance value at 450 nm wavelength. The activities of SOD, GSH-Px and the levels of ROS and Nitric oxide (NO) in macrophages were determined with spectrophotometric kits. […] The absorbance value of miscible liquid was measured at 450 nm wavelength by a multifunctional microplate reader; GSH-Px: 0.2 mL of sample was mixed with 0.2 mL GSH-Px (1 mmol/L) and performed at 37 °C for 5 min. […] The absorbance value was measured at 412 nm wavelength by a multifunctional microplate reader; ROS: DCFH-DA probe was added directly to serum-free medium: DCFH-DA was generally diluted with serum-free medium at a final concentration of 10 µM at 1:1000. […] In general, obvious green fluorescence can be observed in positive control cells after 20 min of stimulation. […] It can also be detected according to FITC fluorescence detection conditions. The results were expressed as fluorescence values.

[2] = tested on: Keap-1, NrF2, HO-1; experiment: Western blot of Keap-1, NrF2, HO-1 in RAW264.7 macrophages; type: cell-based; conditions: stimulation with LPS alone
Description: RAW264.7 macrophages were washed with cold PBS and homogenized with two small magnetic beads (2 mm) and 10× volume of RIPA buffer containing 1% protease inhibitors for 60 s. Then the supernatant was collected after centrifuging at 12,000× g for 10 min at 4 °C, which was the total protein solution. The concentration of protein in the total protein solution was measured by BCA kits. The protein concentration of the supernatant was diluted to 2.0 mg/mL and mixed with an equal volume of buffer (0.25 mol/L Tris-HCl buffer, pH 6.8, containing 4% SDS and 20% glycerol with 20 mmol/L 2-mercaptoethanol). The stacking gel and separating gel were made of 5% (w/v) and 10% (w/v) polyacrylamide, respectively. Electrophoresis was carried out at 80 V until the dye front reached the bottom of the stacking gel, and the gel was run at 120 V until the dye front reached the bottom of the separating gel (165-8001, Bio-Rad Mini-PROTEAN Tetra Electrophoresis System). The PVDF membrane was covered on the gel and transferred membrane at 300 mA for 30 min. The membrane was moved into a decolorization shaker with 5% skim milk (0.5% TBST) and blocked for 1 h at room temperature. […] The film was scanned and archived, processed and decolorized by Photoshop, and the optical density value of the target band was analysed by ImageJ software processing system.

lipopolysaccharide [LPS]
level of NO [1]: 28.63 ± 2.48 μM/L
protein expression level of Keap-1 [2]: significantly increased
protein expression levels of NrF2 and HO-1 [2]: decreased
